Results as given in patent publication US7097854B2, “Amino alcohol derivatives, process for their production and pharmaceutical preparations and reagents containing these compounds” (MediGene Oncology GmbH, priority 1996, dated 2006).

Experiments:
[1] = tested on: Calu cells; assay: Transfection with pCMV-CAT, CAT-Elisa, Calu cells; format: cell-based, human; conditions: relative to DOTAP = 1, pCMV-CAT plasmid
Description: (§1) The testing of DOTAP or the compounds of the invention comprises transfection of the test cells, protein determination by means of the BCA method (Pierce) and carrying out a CAT Elisa and these are described here using DOTAP (Boehringer Mannheim) as an example. After ultrasonication the cationic lipid DOTAP forms unilamellar vesicles (liposomes) in aqueous solution which spontaneously form stable complexes with the DNA (pCMV-CAT). These complexes adhere to the cell surface, fuse with the cell membrane and pCMV-CAT is released into the cytoplasm. The transiently expressed CAT is detected in the cell lysate.
CALU 1, human cancer epithelial cell line from the lung, ECACC 93120818 or another suitable test cell line
(§2) The composition of the test medium used for the respective cell line corresponds with that of the respective culture medium, only the content of FCS is reduced by 50% (only 5% FCS instead of 10%). […]
(§3) The CAT (chloroamphenicol acetyl transferase)-Elisa serves to quantitatively determine the CAT expression in eukaryotic cells after transfection with a plasmid that contains CAT as the reporter gene. […] Anti-CAT-DIG is detected in the third step by a peroxidase-labelled antibody against digoxigenin (Anti-DIG-POD) and visualized in a subsequent substrate reaction. […]
(§4) The microtitre plate is measured at 405 nm and a reference wavelength of 492 nm with an Elisa reader.

[2] = tested on: HeLa cells; assay: Transfection with pCMV-CAT, CAT-Elisa, HeLa cells; format: cell-based, human; conditions: relative to DOTAP = 1, pCMV-CAT plasmid
Description: as §1
HeLa, human cancer epithelial cell line from the cervix, ATCC CCL 2
as §2, §3, §4

| melting point | Structure (SMILES) | relative transfection efficiency in a CAT-Assay (DOTAP = 1) [1] | relative transfection efficiency in a CAT-Assay (DOTAP = 1) [2] |
| --- | --- | --- | --- |
| 245 to 246 °C | CCCCCCCCCCCC(=O)OCCN(CCCNCCCN)CCOC(=O)CCCCCCCCCCC.Cl | – | – |
| – | CCCCCCCCCCCCCC(=O)OCCN(CCOC(=O)CCCCCCCCCCCCC)CC1CCN(CCCN(C)C)CC1 [Example 34, Tetradecanoic acid-2-{(2-tetradecanoyloxy-ethyl)-[1-(3-dimethylamino-propyl)-piperidin-4-yl-methyl]-amino}-ethyl ester] | 3.9 | 3.2 |
| – | CCCCCCCCCCCCCC(=O)OCCN(CCCCNCCCN)CCOC(=O)CCCCCCCCCCCCC [Example 60, Tetradecanoic acid-2-{[4-(3-amino-propylamino)-butyl]-(2-tetradecanoyloxy-ethyl)-amino}-ethyl ester] | 3.4 | 3.2 |
